Reference: ChEMBL document CHEMBL5316284, “Structural Determinants of Indole-2-carboxamides: Identification of Lead Acetamides with Pan Antimycobacterial Activity” (J Med Chem, 2023)
Converted amounts (≈) assume the structure as drawn.

Key:
[1] = Kinetic solubility of compound at pH 7.4 incubated for 6 hrs by LC-MS/MS analysis; format: physicochemical; settings: buffer, read-out: Kinetic_solubility
[2] = Metabolic stability in mouse liver S9 fraction assessed as parent compound remaining at 5 ug/ml after 90 mins in presence of NADPH by LC/MS analysis; format: ADME, subcellular; settings: s9, 1.5 h, dose 5 µg/ml
[3] = test system: Mycobacterium tuberculosis; assay: Antimycobacterial activity against Mycobacterium tuberculosis H37Rv mc2 6206 assessed as inhibition of bacterial growth measured after 7 days by visual analysis; format: functional; settings: H37Rv mc2 6206, 168 h, time 7 day
[4] = Cytotoxicity against human WI26VA4 cells assessed as inhibition of cell growth measured after 72 hrs by MTT assay; format: toxicity, cell-based
[5] = Selectivity index, ratio of IC50 for Cytotoxicity against human WI26VA4 cells to MIC for antimycobacterial activity against Mycobacterium tuberculosis H37Rv mc2 6206; format: toxicity, cell-based; settings: read-out: Selectivity Index
[6] = Permeability of the compound by PAMPA method; format: ADME
[7] = Metabolic stability in human liver S9 fraction assessed as parent compound remaining at 5 ug/ml after 90 mins in presence of NADPH by LC/MS analysis; format: ADME, subcellular; settings: s9, 1.5 h, dose 5 µg/ml
[8] = Plasma protein binding in human at 10 ug/ml incubated for 4 hrs under shaking condition by LC/MS/MS analysis; format: ADME, cell-free; settings: at 10 µg/mL, read-out: PPB (converted)
[9] = Selectivity index, ratio of IC50 for Cytotoxicity against human WI26VA4 cells to MIC for antimycobacterial activity against Mycobacterium abscessus […]; format: toxicity, cell-based; settings: read-out: Selectivity Index
[10] = test system: Mycobacteroides abscessus; assay: Antimycobacterial activity against Mycobacterium abscessus […] assessed as inhibition of bacterial growth measured after 5 days by visual analysis; format: functional; settings: 120 h, time 5 day

O=C(CNc1ccc(OC(F)(F)F)cc1)NC1C2CC3CC(C2)CC1C3 (stereo unspecified)
solubility kinetic at 6 h [1]: 20.3 µg/mL (≈ 55.1 µM) | t1/2 [2]: 3.7 h | MIC [3]: 4 µg/mL (≈ 10.9 µM) | IC50 [4]: > 20 µg/mL | selectivity ratio [5]: > 5 | permeability [6]: 3.12 10^-6 cm/s | t1/2 [7]: 5.9 h | fraction unbound at 4 h, 10 ug/ml [8]: 0.033 | selectivity ratio [9]: > 10 | MIC [10]: 2 µg/mL (≈ 5.43 µM)

O=C(CNc1ccc(Cl)cc1)NC12CC3CC(CC(C3)C1)C2
MIC [3]: 16 µg/mL (≈ 50.2 µM) | MIC [10]: 4 µg/mL (≈ 12.5 µM)

O=C(CNc1ccc(OC(F)(F)F)cc1)NC12CC3CC(CC(C3)C1)C2
solubility kinetic at 6 h [1]: 6.79 µg/mL (≈ 18.4 µM) | t1/2 [2]: 4.1 h | MIC [3]: 16 µg/mL (≈ 43.4 µM) | IC50 [4]: > 20 µg/mL | selectivity ratio [5]: > 1.2 | permeability [6]: 0.47 10^-6 cm/s | t1/2 [7]: 3.1 h | fraction unbound at 4 h, 10 ug/ml [8]: 0.002 | selectivity ratio [9]: > 10 | MIC [10]: 2 µg/mL (≈ 5.43 µM)

COc1ccc(NCC(=O)NC2C3CC4CC(C3)CC2C4)cc1 (stereo unspecified)
MIC [3]: 32 µg/mL (≈ 102 µM) | MIC [10]: 32 µg/mL (≈ 102 µM)

Cc1ccc(NCC(=O)NC23CC4CC(CC(C4)C2)C3)cc1
MIC [3]: 32 µg/mL (≈ 107 µM) | MIC [10]: 32 µg/mL (≈ 107 µM)

C[C@H]1CC[C@H](NC(=O)CNc2ccccc2)CC1
MIC [3]: 64 µg/mL (≈ 260 µM) | MIC [10]: > 64 µg/mL

Cc1ccc(NCC(=O)N[C@H]2CC[C@H](C)CC2)cc1
MIC [3]: 64 µg/mL (≈ 246 µM) | MIC [10]: > 64 µg/mL

COc1ccc(NCC(=O)N[C@@H]2C[C@@H]3C[C@H]([C@H]2C)C3(C)C)cc1
MIC [3]: 64 µg/mL (≈ 202 µM) | MIC [10]: 32 µg/mL (≈ 101 µM)

O=C(CNc1ccccc1Cl)NC12CC3CC(CC(C3)C1)C2
MIC [3]: 8 µg/mL (≈ 25.1 µM) | MIC [10]: 16 µg/mL (≈ 50.2 µM)

C[C@@H]1[C@H]2C[C@@H](C[C@H]1NC(=O)CNc1ccc(C(F)(F)F)cc1)C2(C)C
MIC [3]: 16 µg/mL (≈ 45.1 µM) | MIC [10]: 32 µg/mL (≈ 90.3 µM)

O=C(CNc1ccccc1)NC1CCCCCCC1
MIC [3]: 8 µg/mL (≈ 30.7 µM) | MIC [10]: 8 µg/mL (≈ 30.7 µM)

O=C(CNc1ccc(C(F)(F)F)cc1)NC12CC3CC(CC(C3)C1)C2
MIC [3]: 8 µg/mL (≈ 22.7 µM) | MIC [10]: 8 µg/mL (≈ 22.7 µM)

O=C(CNc1ccc(Cl)cc1)NC1CCCCCCC1
MIC [3]: 64 µg/mL (≈ 217 µM) | MIC [10]: 32 µg/mL (≈ 109 µM)

Cc1ccc(NCC(=O)NC2CCCCCCC2)cc1
MIC [3]: 32 µg/mL (≈ 117 µM) | MIC [10]: > 64 µg/mL

O=C(CNc1cccc(Cl)c1)NC12CC3CC(CC(C3)C1)C2
solubility kinetic at 6 h [1]: 30.3 µg/mL (≈ 95 µM) | t1/2 [2]: 1.7 h | MIC [3]: 1 µg/mL (≈ 3.14 µM) | IC50 [4]: > 20 µg/mL | selectivity ratio [5]: > 20 | permeability [6]: 0.32 10^-6 cm/s | t1/2 [7]: 5.6 h | fraction unbound at 4 h, 10 ug/ml [8]: 0.002 | selectivity ratio [9]: > 20 | MIC [10]: 1 µg/mL (≈ 3.14 µM)

C[C@@H]1[C@H]2C[C@@H](C[C@H]1NC(=O)CNc1ccc(OC(F)(F)F)cc1)C2(C)C
solubility kinetic at 6 h [1]: 4.5 µg/mL (≈ 12.1 µM) | t1/2 [2]: 4.1 h | MIC [3]: 4 µg/mL (≈ 10.8 µM) | IC50 [4]: > 20 µg/mL | selectivity ratio [5]: > 5 | permeability [6]: 3.19 10^-6 cm/s | t1/2 [7]: 9.2 h | fraction unbound at 4 h, 10 ug/ml [8]: 0.048 | selectivity ratio [9]: > 20 | MIC [10]: 1 µg/mL (≈ 2.7 µM)

C[C@H]1CC[C@H](NC(=O)CNc2ccc(Cl)cc2)CC1
MIC [3]: 64 µg/mL (≈ 228 µM) | MIC [10]: > 64 µg/mL

C[C@@H]1[C@H]2C[C@@H](C[C@H]1NC(=O)CNc1ccc(Br)cc1)C2(C)C
MIC [3]: 16 µg/mL (≈ 43.8 µM) | MIC [10]: 4 µg/mL (≈ 10.9 µM)

CNC(=C[N+](=O)[O-])NCCSCc1ccc(CN(C)C)o1 [RANITIDINE]
solubility kinetic at 6 h [1]: 77.5 µg/mL (≈ 246 µM) | permeability [6]: 3.47 10^-6 cm/s | fraction unbound at 4 h, 10 ug/ml [8]: 0.793
